The values below come from paper PMC8064491, “Design and Synthesis of Novel Symmetric Fluorene-2,7-Diamine Derivatives as Potent Hepatitis C Virus Inhibitors” (Pharmaceuticals, 2021).

Where two headings read alike, the source gives them in different places.

As a reminder, the EC50 is the midpoint of the concentration-response curve. Usually CC50 stands for the concentration that lowers cell viability or growth by half.

Data set [1] concerns HCV genotype 1b replicon (Huh5-2 cells). Nature of the data set: Drug-drug interaction with daclatasvir in Huh5-2 replicon cells (F-Luc activity). It is filed as cell-based, Hepatitis C virus. The method, then:
Next, we investigated the effect of compound 26 in the presence of daclatasvir (DCV) in Huh5-2 replicon cells. […] It is worth noting that NS5A is a very flexible protein and can attain different conformations (open conformer and closed conformer PDB ID: 1ZH1, 3FQM, respectively); thus, there is the potential for different binding modes of daclatasvir and our molecules, at the active center of the NS5A protein, leading to synergism.
The coefficient of Drug interactions (CDI) is calculated as follows: CDI = AB / (A × B), where AB is the ratio of the combination groups to the control group; A or B is the ratio of the single-agent group to the control group.
Figure 4 Synergistic anti-HCV activity of compound 26 with daclatasvir (DCV). Huh5-2 cells were treated with 30 pM or […] of DCV was used to in the presence or absence of the analog. F-Luc activity was quantified as relative light units (RLU) per μg of total protein. Values derived from cells treated with the solvent DMSO (control—C) were set to 100%. CDI: coefficient of drug interaction. Bars show mean values derived from three independent experiments in triplicate. Error bars denote standard deviation (SD). TEXT PRINTED IN THE PICTURE: 26 + DCV: CDI: 0,68 (DCV 15 pM - Comp. 26 25 pM); CDI: 0,70 (DCV 30 pM - Comp. 26 50 pM)

Another data set deals with HCV 1b RNA. Kind of data set: Quantification of (+) strand HCV RNA by RT-qPCR in Huh5-2 cells. It is filed as cell-based. To be noted: Hepatitis C virus, Huh-5-2, normalized to YWHAZ. The method, then: The HCV RNA and NS5A protein levels were determined in cells treated with compound 26 using reverse transcription-quantitative polymerase chain reaction (RT-qPCR) or Western blot analysis, respectively (Figure 5A).
Total RNA was extracted from Huh5-2 cells with Nucleozol reagent (Macherey-Nagel), according to the manufacturer’s instructions, and used to perform reverse-transcription (RT) and quantitative real-time polymerase chain reaction (qPCR) for replicon RNA. RT was performed using Moloney Murine Leukemia Virus (MMLV) reverse transcriptase (Promega) and reverse primers specific for Con1 IRES (5’-[…]-3’) and the housekeeping gene YWHAZ (5’- […]-3’). For qPCR, primers specific for the Con1 IRES (forward: 5’-[…]-3’and reverse: 5’-[…]-3’) and KAPA SYBR FAST qPCR Master Mix (Kapa Biosystems) were used. YWHAZ mRNA was used as a normalization control (forward: 5’-[…]-3’ and reverse: 5’- […]-3’).
Figure 5 Anti-HCV activity of compound 26 at the level of viral RNA and protein. Different concentrations of compound 26, or the solvent DMSO (control—C), were used to treat Huh5-2 cells. (A) Quantification of (+) strand HCV RNA by RT-qPCR. Values are expressed as a percentage of those obtained from control cells. mRNA levels of the housekeeping gene 14-3-3-zeta polypeptide (YWHAZ) were used for normalization. (B) (Top) Western blot analysis for NS5A. β-actin was used as a loading control. […]
On the technique in general: Quantitative PCR measures a nucleic acid by following its amplification.

Data set [2] can be described thus: Cytotoxicity by intracellular ATP levels. It is filed as cell-based. To be noted: human, Huh5-2 cells, read-out: HCV Replicon 1b CC50. On the procedure: (§1) The HCV RNA replication inhibitory effect of the novel compounds and their impact on cell viability was tested in the stable cell line Huh5-2 carrying an HCV subgenomic reporter replicon of genotype 1b (strain Con1). The viral replication level was measured in terms of the activity of the co-expressed firefly luciferase (F-Luc). Several concentrations of the tested compounds were prepared in a cell culture medium and were used to treat the cells for 72 h. The solvent DMSO was added as a control with a final concentration of 0.2% so as not to impact viral replication (data not shown). First, different compound concentrations of up to 100 μM were evaluated for their effect on cell viability; results are reported as the median cytotoxic concentration (CC50). Next, all compounds were screened for their anti-HCV activity at a concentration of 1 µM, and compounds showing ≥50% activity were further tested in several concentrations to calculate the median effective concentration (EC50) values (Table 1 and Table 2). The anti-HCV activity of the analogs 1–32 was estimated by quantifying luciferase activity resulting from viral replication. Cytotoxicity was determined by measuring the intracellular levels of ATP. The selectivity index (SI50) was calculated as the ratio of CC50 to EC50 and was calculated as an indication of the compounds’ safety. We used daclatasvir as a positive control.
(§2) Cells were treated with serial dilutions of the test compounds or the solvent DMSO for 72 h. Antiviral activity and cytotoxicity were determined by measuring virus-derived luciferase activity or intracellular ATP levels, respectively. The median effective concentration (EC50) of the compounds, reducing luciferase signal by 50%, and their median cytotoxic concentration (CC50), causing 50% cell death, were determined by nonlinear regression analysis using the Prism 6.0 software (GraphPad Software Inc.). Daclatasvir was kindly provided by Dr. Marc Windisch (Institut Pasteur Korea).
ATP was measured using the ViaLight HS BioAssay kit (Lonza) according to the manufacturer’s protocol in a GloMax 20/20 single-tube luminometer (Promega) for 1 s. Values were normalized to total protein amounts.
Background: A replicon is a self-replicating genome or part of one, used to study replication in cells.

Data set [3] has as its system HCV subgenomic replicon of genotype 4a (strain ED43). Kind of data set: Anti-HCV 4a activity, replicon assay in Huh7.5-4a cells. It is filed as cell-based. Conditions: Hepatitis C virus, read-out: EC50 GT 4a. The text has this:
(§3) Compound 26, showing the highest activity on genotype 1b was further tested against HCV 3a and 4a replicons. The fact that genotype 4 is highly heterogeneous, of less response to DAAs, and the most prevalent genotype in Egypt, made this genotype of specific interest. Moreover, genotype 3 is the most difficult to treat genotype using DAAs, especially in patients with liver cirrhosis. Specifically, Huh7.5-3a and Huh7.5-4a stable cell lines having HCV subgenomic replicons of genotypes 3a (strain S52) and 4a (strain ED43), respectively, were treated with different concentrations of compound 26. […] Further structural optimization is required, and testing compound 26 in combination with other DAAs could improve the clinical outcome.
The stable replicon cell line Huh5-2 (genotype 1b; Con1) (kindly provided by R. Bartenschlager, Heidelberg University, Germany) has been described previously. […]
(§4) Cells were treated with serial dilutions of the test compounds or the solvent DMSO for 72 h. Antiviral activity and cytotoxicity were determined by measuring virus-derived luciferase activity or intracellular ATP levels, respectively. […]
(§5) Firefly luciferase activity was measured using Luciferase Assay System (Promega), according to the manufacturer’s instructions. […] Values were normalized to total protein amounts as quantified by Bradford assay (Pierce).

Data set [4] deals with HCV subgenomic reporter replicon of genotype 1b (strain Con1). Kind of data set: Anti-HCV 1b activity, luciferase reporter replicon assay in Huh5-2 cells. To be noted: for EC50: Hepatitis C virus. It is filed as cell-based, Hepatitis C virus. On the procedure: as §1
(§6) The stable replicon cell line Huh5-2 (genotype 1b; Con1) (kindly provided by R. Bartenschlager, Heidelberg University, Germany) has been described previously. The stable cell lines Huh7.5-3a and Huh7.5-4a have been constructed with the subgenomic reporter replicons of HCV 3a (S52) S52-SG(Feo)(AII) and HCV 4a (ED43) ED43-SG(Feo)(VYG) (kindly provided by C.M. Rice, The Rockefeller University, NY). Cells were cultured in high glucose (25 mM) Dulbecco’s modified minimal essential medium (Invitrogen), supplemented with 2 mM L-glutamine, 0.1 mM non-essential amino acids, 100 U/mL penicillin, 100 µg/mL streptomycin, and 10% (v/v) fetal calf serum (referred to as complete DMEM). Complete DMEM was supplemented with G418 at 500 μg/mL for Huh5-2, 750 μg/mL for Huh7.5-3a, and 350 μg/mL for Huh7.5-4a.
as §2
Firefly luciferase activity was measured using Luciferase Assay System (Promega), according to the manufacturer’s instructions. Measurements were performed with a GloMax 20/20 single tube luminometer (Promega) for 10 s. Values were normalized to total protein amounts as quantified by Bradford assay (Pierce).
(In general: In a reporter assay the amount or activity of a reporter protein is the signal.)

Data set [5] relates to HCV subgenomic replicon of genotype 3a (strain S52). Kind of data set: Anti-HCV 3a activity, replicon assay in Huh7.5-3a cells. It is filed as cell-based, Hepatitis C virus. To be noted: for EC50: Hepatitis C virus, read-out: EC50 GT 3a.
Description: as §3, §6, §4, §5

Regarding `CCOC(=O)N[C@@H](C(=O)N1CCC[C@H]1C(=O)Nc1ccc2c(c1)Cc1cc(NC(=O)[C@@H]3CCCN3C(=O)[C@H](NC(=O)OCC)c3ccccc3)ccc1-2)c1ccccc1` [Compound 26, Diethyl((1R,1’R)-((2S,2’S)-(((9H-fluorene-2,7-diyl)bis(azanediyl))bis(carbonyl))bis(pyrrolidine-2,1-diyl))bis(2-oxo-1-phenylethane-2,1-diyl))dicarbamate], the CDI was 0,68 in data set [1] (DCV 15 pM - Comp. 26 25 pM) and 0,70 in data set [1] (DCV 30 pM - Comp. 26 50 pM). Moreover, the “coefficient of drug interaction (CDI)” value in data set [1] (compound 26 with daclatasvir, CDI <1 synergistic) is reported as “≈ 0.7”. Moreover, the EC50 is 0.03 nM with HCV 1b RNA; 117 nM in data set [3]; 0.036 nM in data set [4] (Huh-5-2, 72 h, read-out: HCV Replicon 1b EC50); 0.04 nM in data set [4] (Huh-5-2, read-out: EC50 against HCV genotype 1b); 1.2 nM in data set [5]. The cytotoxic concentration (CC50) at 72 h in data set [2] was > 100000 nM. Further, the “fold more active than S counterparts” value in data set [4] (25 vs 21, 26 vs 22, HCV 1b EC50 ratio) was 200 fold. Further, in data set [4] (SI50 ratio), the “selectivity index relative to daclatasvir” value is on record as “four-fold better”. Further, in data set [5] (EC50 ratio), the “effect on GT 3a relative to daclatasvir” value is given as “seven-fold higher”.

Consider `COC(=O)N[C@H](C(=O)N1CCC[C@H]1c1nc(-c2ccc(-c3ccc(-c4c[nH]c([C@@H]5CCCN5C(=O)[C@@H](NC(=O)OC)C(C)C)n4)cc3)cc2)c[nH]1)C(C)C` [Daclatasvir, reference compound], for which the CC50 at 72 h in data set [2] stood at 17700 nM. Also, the EC50 is 0.027 nM in data set [4] (Huh-5-2, Huh5-2 cells, 72 h, luciferase activity, read-out: HCV Replicon 1b EC50) and 8.3 nM in data set [5] (Huh7.5-3a cells). Also, the “HCV Replicon 1b SI50” value in data set [4] (SI50 = CC50/EC50) is 655,556.
